From patent publication US20250107544A1, “4-(3-OXO-2-(PENT-2-ENYL)CYCLOPENTYL) BUTANOIC ACID MIXTURES AND USES THEREOF” (Valent BioSciences LLC., priority 2023, published 2025)

Assays:
[1] = tested on: unripened apples, Pink Lady variety; assay: Apple coloration in Pink Lady variety (Example 1), percent red pixel area after foliar spray; type: in vivo; details: for Average % Red Pixel Area: 34 hours post spray; for % change from control: vs 0.05% Regulaid control
From the text: 10 sets of unripened apples, Pink Lady variety, harvested three weeks before the normal harvest date, were each foliar sprayed with either 1) 0.05% Regulaid® as a control, 2) 30 ppm OPC4, 3) 100 ppm OPC4, 4) 300 ppm OPC4, 5) 1,000 ppm OPC4, 6) 50 ppm ACC, 7) 50 ppm jasmonic acid, 8) a mixture of 30 ppm OPC4 and 50 ppm ACC, 9) a mixture of 100 ppm OPC4 and 50 ppm ACC, 10) a mixture of 300 ppm OPC4 and 50 ppm ACC, 11) a mixture of 1,000 ppm OPC4 and 50 ppm ACC, 12) a mixture of 30 ppm OPC4 and 50 ppm jasmonic acid, 13) a mixture of 100 ppm OPC4 and 50 ppm jasmonic acid, 14) a mixture of 300 ppm OPC4 and 50 ppm jasmonic acid, 15) a mixture of 1,000 ppm OPC4 and 50 ppm jasmonic acid. 34 hours post spray application percent red pixel area (shaded) was measured. Percent red pixel area is an indication of the coloration of the apple fruit.
(§1) To determine if the mixture provided unexpected results, the observed combined efficacy (“OCE”) was divided by the expected combined efficacy (“ECE”) wherein the ECE is calculated by the Abbott method: […]
(§2) wherein ECE is the expected combined efficacy and in which A and B are the percent change from control given by the single active ingredients. If the ratio between the OCE of the mixture and the ECE of the mixture is greater than 1, then greater than expected interactions are present in the mixture. (Gisi, Synergistic Interaction of Fungicides in Mixtures, The American Phytopathological Society, 86:11, 1273-1279,1996).

[2] = tested on: unripened apples, Pink Lady variety; assay: Apple coloration in Pink Lady variety (Example 2), percent red pixel area after foliar spray; type: in vivo; details: for Average % Red Pixel Area: 34 hours post spray; for % change from control: vs 0.05% Regulaid control
Experimental: as §1, §2
10 sets of unripened apples, Pink Lady variety, harvested three weeks before the normal harvest date, were each foliar sprayed with either 1) 0.05% Regulaid® as a control, 2) 10 ppm OPC4, 3) 100 ppm OPC4, 4) 100 ppm ACC, 5) 100 ppm jasmonic acid, 6) a mixture of 10 ppm OPC4 and 100 ppm ACC, 7) a mixture of 100 ppm OPC4 and 100 ppm ACC, 8) a mixture of 10 ppm OPC4 and 100 ppm jasmonic acid and 9) a mixture of 100 ppm OPC4 and 100 ppm jasmonic acid. 34 hours post spray application percent red pixel area (shaded) was measured. Percent red pixel area is an indication of the coloration of the apple fruit.

NC1(C(=O)O)CC1 [ACC, 1-amino-1-cyclopropanecarboxylic acid, reference compound]
Average % Red Pixel Area ([1]; 50 ppm foliar spray): 9.33% | % change from control ([1]; 50 ppm foliar spray): 0.23% | Average % Red Pixel Area ([2]; 100 ppm foliar spray): 19.32% | % change from control ([2]; 100 ppm foliar spray): −0.20%

CC/C=C\C[C@H]1C(=O)CC[C@@H]1CC(=O)O [JA, jasmonic acid, reference compound]
Average % Red Pixel Area ([1]; 50 ppm foliar spray): 39.64% | % change from control ([1]; 50 ppm foliar spray): 4.22% | Average % Red Pixel Area ([2]; 100 ppm foliar spray): 49.9% | % change from control ([2]; 100 ppm foliar spray): 1.06%

CCC=CCC1C(=O)CCC1CCCC(=O)O (centres unmarked) [OPC4, 4-(3-oxo-2-(pent-2-enyl)cyclopentyl) butanoic acid]
Average % Red Pixel Area ([1]; 30 ppm foliar spray): 13.37% | % change from control ([1]; 30 ppm foliar spray): 0.76% | Average % Red Pixel Area ([1]; 100 ppm foliar spray): 36.02% | % change from control ([1]; 100 ppm foliar spray): 3.74% | Average % Red Pixel Area ([1]; 300 ppm foliar spray): 65.59% | % change from control ([1]; 300 ppm foliar spray): 7.63% | Average % Red Pixel Area ([1]; 1000 ppm foliar spray): 54.35% | % change from control ([1]; 1000 ppm foliar spray): 6.15% | Average % Red Pixel Area ([2]; 10 ppm foliar spray): 18.85% | % change from control ([2]; 10 ppm foliar spray): −0.22% | Average % Red Pixel Area ([2]; 100 ppm foliar spray): 43.59% | % change from control ([2]; 100 ppm foliar spray): 0.80%
